# Source: ChEMBL document CHEMBL4840338, “Cudraflavone C from Artocarpus hirsutus as a Promising Inhibitor of Pathogenic, Multidrug-Resistant S. aureus, Persisters, and Biofilms: A New Insight into a Rational Explanation of Traditional Wisdom” (J Nat Prod, 2021)
# Activity calls are given as the source filed them. The rule behind the calls is not given here.
# Tests used:
# Staphylococcus aureus [1] = test: Antibacterial activity against methicillin-resistant Staphylococcus aureus NRS 10193 assessed as bacterial growth inhibition incubated for 16 to 18 hrs by broth microdilution method; type: functional; settings: time 16-18 hrs
# Staphylococcus aureus [2] = test: Antibiofilm activity against Staphylococcus aureus ATCC 29213 assessed as reduction in preformed bacterial biofilm at 10XMIC incubated for 24 hrs by crystal violet staining based microtiter plate reader assay; type: functional
# Staphylococcus aureus [3] = test: Antibacterial activity against Staphylococcus aureus ATCC 29213 assessed as time for increase by 1 log10CFU at 1XMIC incubated for 1 hr followed by drug wash-out and measured every single 1 hr; type: functional
# Staphylococcus aureus [4] = test: Antibacterial activity against Staphylococcus aureus ATCC 29213 assessed as bacterial growth inhibition in presence of meropenem incubated for 24 hrs by checkerboard assay; type: functional
# Enterococcus [5] = test: Antibacterial activity against vancomycin-susceptible Enterococcus NR 31887 assessed as bacterial growth inhibition incubated for 16 to 18 hrs by broth microdilution method; type: functional; settings: time 16-18 hrs
# [6] = Cytotoxicity against African green monkey Vero cells incubated for 72 hrs by MTT assay; type: cell-based; settings: chlorocebus sabaeus
# Staphylococcus aureus [7] = test: Antibacterial activity against methicillin-resistant Staphylococcus aureus NRS 10119 assessed as bacterial growth inhibition incubated for 16 to 18 hrs by broth microdilution method; type: functional; settings: time 16-18 hrs
# Enterococcus [8] = test: Antibacterial activity against vancomycin-resistant Enterococcus NR 31903 assessed as bacterial growth inhibition incubated for 16 to 18 hrs by broth microdilution method; type: functional; settings: time 16-18 hrs
# Staphylococcus aureus [9] = test: Antibacterial activity against methicillin-resistant Staphylococcus aureus NRS 10194 assessed as bacterial growth inhibition incubated for 16 to 18 hrs by broth microdilution method; type: functional; settings: time 16-18 hrs
# Staphylococcus aureus [10] = test: Antibacterial activity against Staphylococcus aureus ATCC 29213 assessed as fractional inhibitory concentration in presence of meropenem incubated for 24 hrs by checkerboard assay; type: functional
# Staphylococcus aureus [11] = test: Antibacterial activity against Staphylococcus aureus ATCC 29213 assessed as bacterial growth inhibition in presence of minocycline incubated for 24 hrs by checkerboard assay; type: functional
# Enterococcus [12] = test: Antibacterial activity against vancomycin-susceptible Enterococcus NR 31886 assessed as bacterial growth inhibition incubated for 16 to 18 hrs by broth microdilution method; type: functional; settings: time 16-18 hrs
# Enterococcus [13] = test: Antibacterial activity against vancomycin-resistant Enterococcus NR 31909 assessed as bacterial growth inhibition incubated for 16 to 18 hrs by broth microdilution method; type: functional; settings: time 16-18 hrs
# Staphylococcus aureus [14] = test: Bactericidal activity against Staphylococcus aureus ATCC 29213 assessed as reduction in bacterial load at 10X MIC preincubated for 6 hrs followed by subculturing on TSA plate for 18 to 20 hrs by time-kill assay; type: functional; parameters: scale not given: the % may be the effect or the level left; settings: time 24-26 hrs
# Staphylococcus aureus [15] = test: Bactericidal activity against Staphylococcus aureus ATCC 29213 assessed as reduction in bacterial load at 10X MIC preincubated for 1 hr followed by subculturing on TSA plate for 18 to 20 hrs by time-kill assay; type: functional; settings: time 19-21 hrs
# Staphylococcus aureus [16] = test: Antibacterial activity against Staphylococcus aureus ATCC 29213 assessed as fractional inhibitory concentration in presence of linezolid incubated for 24 hrs by checkerboard assay; type: functional
# Escherichia coli [17] = test: Antibacterial activity against Escherichia coli ATCC 25922 assessed as bacterial growth inhibition incubated for 16 to 18 hrs by broth microdilution method; type: functional; settings: time 16-18 hrs
# Staphylococcus aureus [18] = test: Bactericidal activity against Staphylococcus aureus ATCC 29213 assessed as reduction in bacterial load at 1X MIC preincubated for 6 hrs followed by subculturing on TSA plate for 18 to 20 hrs by time-kill assay; type: functional; settings: time 24-26 hrs
# Staphylococcus aureus [19] = test: microbe, parasite or virus in culture; settings: ATCC 29213
# Description: Antibacterial activity against Staphylococcus aureus ATCC 29213 assessed as bacterial growth inhibition incubated for 16 to 18 hrs by broth microdilution method
# Acinetobacter baumannii [20] = test: Antibacterial activity against Acinetobacter baumannii BAA-1605 ssessed as bacterial growth inhibition in presence of outermembrane permeabilizer, PMBN incubated for 16 to 18 hrs by broth microdilution method; type: functional; settings: time 16-18 hrs
# Staphylococcus aureus [21] = test: Synergistic antibacterial activity against Staphylococcus aureus ATCC 29213 assessed as fractional inhibitory concentration in presence of gentamycin incubated for 24 hrs by checkerboard assay; type: functional
# Staphylococcus aureus [22] = test: Synergistic antibacterial activity against multidrug-resistant methicillin resistant Staphylococcus aureus NRS 10119 assessed as reduction in bacterial load at 1X MIC preincubated for 24 hrs in presence of gentamycin followed by subculturing on TSA plate for 18 to 20 hrs by time-kill assay; type: functional; settings: time 42-44 hrs
# Staphylococcus aureus [23] = test: Antibacterial activity against methicillin-resistant Staphylococcus aureus NRS 10186 assessed as bacterial growth inhibition incubated for 16 to 18 hrs by broth microdilution method; type: functional; settings: time 16-18 hrs
# Staphylococcus aureus [24] = test: Antibacterial activity against methicillin-resistant Staphylococcus aureus NRS 10192 assessed as bacterial growth inhibition incubated for 16 to 18 hrs by broth microdilution method; type: functional; settings: time 16-18 hrs
# Staphylococcus aureus [25] = test: Antibacterial activity against vancomycin-resistant Staphylococcus aureus VRS12 assessed as bacterial growth inhibition incubated for 16 to 18 hrs by broth microdilution method; type: functional; settings: time 16-18 hrs
# Staphylococcus aureus [26] = test: Antibacterial activity against methicillin-resistant Staphylococcus aureus NRS 10129 assessed as bacterial growth inhibition incubated for 16 to 18 hrs by broth microdilution method; type: functional; settings: time 16-18 hrs
# Staphylococcus aureus [27] = test: Antibacterial activity against Staphylococcus aureus ATCC 29213 assessed as fractional inhibitory concentration in presence of vancomycin incubated for 24 hrs by checkerboard assay; type: functional
# Staphylococcus aureus [28] = test: Antibacterial activity against methicillin-resistant Staphylococcus aureus NRS 10191 assessed as bacterial growth inhibition incubated for 16 to 18 hrs by broth microdilution method; type: functional; settings: time 16-18 hrs
# Staphylococcus aureus [29] = test: Antibacterial activity against Staphylococcus aureus ATCC 29213 assessed as time for increase by 1 log10CFU at 10XMIC incubated for 1 hr followed by drug wash-out and measured every single 1 hr; type: functional
# Staphylococcus aureus [30] = test: Antibacterial activity against vancomycin-resistant Staphylococcus aureus VRS4 assessed as bacterial growth inhibition incubated for 16 to 18 hrs by broth microdilution method; type: functional; settings: time 16-18 hrs
# Acinetobacter baumannii [31] = test: Antibacterial activity against Acinetobacter baumannii BAA 1605 assessed as bacterial growth inhibition incubated for 16 to 18 hrs by broth microdilution method; type: functional; settings: time 16-18 hrs
# Staphylococcus aureus [32] = test: Antibacterial activity against Staphylococcus aureus ATCC 29213 assessed as fractional inhibitory concentration in presence of levofloxacin incubated for 24 hrs by checkerboard assay; type: functional
# Staphylococcus aureus [33] = test: Antibacterial activity against Staphylococcus aureus ATCC 29213 assessed as fractional inhibitory concentration in presence of ceftazidime incubated for 24 hrs by checkerboard assay; type: functional
# Staphylococcus aureus [34] = test: Antibacterial activity against methicillin-resistant Staphylococcus aureus NRS 10100 assessed as bacterial growth inhibition incubated for 16 to 18 hrs by broth microdilution method; type: functional; settings: time 16-18 hrs
# Staphylococcus aureus [35] = test: Antibacterial activity against Staphylococcus aureus ATCC 29213 assessed as reduction in bacterial growth at sub-MIC incubated for more than 40 days; type: functional, organism-based; settings: time day >40
# Escherichia coli [36] = test: Antibacterial activity against Escherichia coli ATCC 25922 assessed as bacterial growth inhibition in presence of outermembrane permeabilizer, PMBN incubated for 16 to 18 hrs by broth microdilution method; type: functional; settings: time 16-18 hrs
# Staphylococcus aureus [37] = test: Antibacterial activity against Staphylococcus aureus ATCC 29213 assessed as bacterial growth inhibition in presence of ceftazidime incubated for 24 hrs by checkerboard assay; type: functional
# Enterococcus [38] = test: Antibacterial activity against vancomycin-susceptible Enterococcus NR 31885 assessed as bacterial growth inhibition incubated for 16 to 18 hrs by broth microdilution method; type: functional; settings: time 16-18 hrs
structure (smiles),measurement,setting,value
CC(C)=CCc1c(O)cc2oc(-c3ccc(O)cc3O)c(CC=C(C)C)c(=O)c2c1O [CUDRAFLAVONE C],MIC,Staphylococcus aureus [1],4 µg/mL
same,inhibition (INH),Staphylococcus aureus [2],30.4%
same,Time,Staphylococcus aureus [3],4 h
same,MIC,Staphylococcus aureus [4],2 µg/mL
same,MIC,Enterococcus [5],4 µg/mL
same,CC50 at 72 h,[6],50 µg/mL
same,MIC,Staphylococcus aureus [7],4 µg/mL
same,MIC,Enterococcus [8],4 µg/mL
same,MIC,Staphylococcus aureus [9],4 µg/mL
same,FIC,Staphylococcus aureus [10],1.5
same,MIC,Staphylococcus aureus [11],2 µg/mL
same,MIC,Enterococcus [12],4 µg/mL
same,MIC,Enterococcus [13],4 µg/mL
same,Activity,Staphylococcus aureus [14],100%
same,Activity,Staphylococcus aureus [15],5 log10CFU/ml
same,FIC,Staphylococcus aureus [16],1.5
same,MIC,Escherichia coli [17],> 64 µg/mL
same,Activity,Staphylococcus aureus [18],4 log10CFU/ml
same,MIC,Staphylococcus aureus [19],2 µg/mL
same,MIC,Acinetobacter baumannii [20],4 µg/mL
same,FIC,Staphylococcus aureus [21],0.135
same,Activity,Staphylococcus aureus [22],6 log10CFU/ml
same,MIC,Staphylococcus aureus [23],4 µg/mL
same,MIC,Staphylococcus aureus [24],4 µg/mL
same,MIC,Staphylococcus aureus [25],4 µg/mL
same,MIC,Staphylococcus aureus [26],4 µg/mL
same,FIC,Staphylococcus aureus [27],1.5
same,MIC,Staphylococcus aureus [28],4 µg/mL
same,Time,Staphylococcus aureus [29],>24 h
same,MIC,Staphylococcus aureus [30],4 µg/mL
same,MIC,Acinetobacter baumannii [31],> 64 µg/mL
same,FIC,Staphylococcus aureus [32],1.5
same,FIC,Staphylococcus aureus [33],1.5
same,MIC,Staphylococcus aureus [34],4 µg/mL
same,Activity,Staphylococcus aureus [35],Active
same,MIC,Escherichia coli [36],1 µg/mL
same,MIC,Staphylococcus aureus [37],2 µg/mL
same,MIC,Enterococcus [38],4 µg/mL
